The target in this assay is T1, rat GABAA α2β2γ2 Receptors (Rattus norvegicus, UniProt P23576).
T1 construct: expressed in transfected cells; pIRES Neo2 / Hygro2 / Puro2 vectors
The assay can be described thus: PatchXpress 7000A automated parallel patch-clamp: potentiation of GABA EC20 current in HEK293 cells. Format: cell-based. The following applies: percent increase in mean GABA EC20 current response, HEK293 cells stably expressing rat GABAA α2β2γ2, voltage-clamped at −60 mV; for Emax: read-out: GABAA α2 EP EMAX (%). How it is done: Cell Line Generation and Transient Expression. In order to generate stable clonal lines expressing GABAA configurations containing α2β2γ2 subunits, HEK293 cells were transfected with 2 μg of the subunit, using the Invitrogen Lipofectamine PLUS protocol. The following DNA and vector were used for the stable transfection: α2 subunits in pIRES Neo2, β2 subunit in pIRES Hygro2, and a γ2 subunit in pIRES Puro2. Transfectants were selected with G418, Hygromycin B, and Puromycin antibiotics and cloned by limiting dilution. For transient expression, transfections were performed using the Amaxa transfection protocol and 2 μg DNA of the GABAA receptor subunit using Amaxa transfection protocol. Cells were used for experiments 24-72 hrs post transfection.
PatchXpress® 7000A Automated Parallel Patch-Clamp System. HEK293 cells stably expressing recombinant the rat GABAA/α2β2γ2 configuration were harvested by a single DPBS wash followed by 0.025% Trypsin-EDTA treatment for one minute at room temperature. A 6-ml cell suspension (1.7×10^5 cells/ml) was centrifuged at 500 rpm for 60 s. The cell pellet was gently agitated, suspended in 150 μl extracellular saline buffer, and transferred to a 1.5-ml tube.
After manually placing the AVIVA Biosciences SealChip 16™ in the holder of the PatchXpress®, the SealChip16™ was automatically prepared for application of the cells. Intracellular solution containing (in mM) CsCl, 135; EGTA, 11; MgCl2, 1; HEPES, 10; ATP, 5; GTP, 0.3 (pH 7.3 with CsOH, 290-300 mOsmol) was injected into the bottom of each chamber, and extracellular solution containing (in mM) NaCl, 140; KCl, 4; CaCl2, 1.8; MgCl2, 1; glucose, 10; HEPES, 10; ATP-K2, 5 (pH 7.4 with NaOH 305-310 mOsmol) was perfused into the top of the chambers through a 16-nozzle wash station. Throughout this period, the pressure controller maintained a positive pressure (+10 mmHg) from the intracellular side to keep the hole free of debris. Seal formation was achieved by a ramp increase in negative pressure from 0 to −35 mmHg at a rate of −3.5 mmHg/s every 10 s until a giga ohm seal was obtained and verified for 30 s.
Compounds were prepared from fresh DMSO stock and were transferred to a 96-well disposable glass insert compound plate for placement in the PatchXpress®. A full 10 point concentration-response curve for GABA was obtained for the GABA receptor cell line, from which an EC20 was estimated. Test compounds were assayed for their ability to potentiate the current response by an EC20 concentration of GABA. Each experiment began by two consecutive applications of GABA EC20 alone. Following formation of a giga-ohm seal, patch chambers were perfused with extracellular saline for 60 s to remove excess cells from the well. Cells were then voltage-clamped to −60 mV for the duration of the experiment. After 60 s, 30 μl (10 μl/s over 3 s) of GABA EC20 concentration, which elicited a GABA receptor-mediated inward Cl^− current generally in the order of 200-300 pA in peak amplitude, was added to each chamber. The GABA EC20 concentration was then washed out of the recording chamber after 5 s and washing with extracellular saline was continued for 60 s. After another 60 s, a second GABA EC20 concentration was applied under the same paradigm. […] Following the second GABA EC20 application, the lowest concentration of test compound in the presence of the GABA EC20 concentration was similarly applied. Ascending concentrations of the test compound were applied successively to an individual well in the presence of the GABA EC20 concentration.
Only cells meeting strict predetermined patch-clamp QC parameters, including seal resistance, membrane resistance, and holding current were included in data analysis. GABA current responses in the presence of test compound were measured and expressed as the mean of the initial control GABA EC20 current responses. The peak current amplitude was measured using DataXpress/pCLAMP9 (Axon Instruments). Linear leak subtraction was performed off-line. […]

Where a name gives a salt, the structure may show the parent alone. Bounds are passed on as bounds.

T1 sequence (P23576 29-451): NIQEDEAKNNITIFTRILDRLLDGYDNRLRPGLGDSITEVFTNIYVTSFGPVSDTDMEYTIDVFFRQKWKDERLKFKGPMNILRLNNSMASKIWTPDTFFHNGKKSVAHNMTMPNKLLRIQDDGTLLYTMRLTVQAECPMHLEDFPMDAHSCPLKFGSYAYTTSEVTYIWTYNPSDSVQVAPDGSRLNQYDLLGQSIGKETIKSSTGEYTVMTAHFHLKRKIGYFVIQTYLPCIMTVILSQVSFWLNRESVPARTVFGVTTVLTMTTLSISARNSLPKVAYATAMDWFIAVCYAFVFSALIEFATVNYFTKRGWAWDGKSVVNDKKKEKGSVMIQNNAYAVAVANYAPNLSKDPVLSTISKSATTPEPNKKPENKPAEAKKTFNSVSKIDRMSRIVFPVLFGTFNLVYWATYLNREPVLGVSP
T1 sequence (P63138 25-474 partner limits assumed): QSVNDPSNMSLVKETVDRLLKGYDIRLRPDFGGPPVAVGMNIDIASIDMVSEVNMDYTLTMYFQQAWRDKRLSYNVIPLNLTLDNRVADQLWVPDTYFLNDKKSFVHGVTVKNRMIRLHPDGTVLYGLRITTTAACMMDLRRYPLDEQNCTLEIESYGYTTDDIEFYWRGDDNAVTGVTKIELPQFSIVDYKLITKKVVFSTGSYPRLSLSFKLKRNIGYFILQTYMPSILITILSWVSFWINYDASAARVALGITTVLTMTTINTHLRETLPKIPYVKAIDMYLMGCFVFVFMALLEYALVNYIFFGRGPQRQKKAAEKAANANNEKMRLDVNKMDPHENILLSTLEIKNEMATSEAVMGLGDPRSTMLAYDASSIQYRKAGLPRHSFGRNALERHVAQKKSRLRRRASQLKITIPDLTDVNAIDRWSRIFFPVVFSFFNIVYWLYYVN
T1 sequence (P18508 39-466 partner): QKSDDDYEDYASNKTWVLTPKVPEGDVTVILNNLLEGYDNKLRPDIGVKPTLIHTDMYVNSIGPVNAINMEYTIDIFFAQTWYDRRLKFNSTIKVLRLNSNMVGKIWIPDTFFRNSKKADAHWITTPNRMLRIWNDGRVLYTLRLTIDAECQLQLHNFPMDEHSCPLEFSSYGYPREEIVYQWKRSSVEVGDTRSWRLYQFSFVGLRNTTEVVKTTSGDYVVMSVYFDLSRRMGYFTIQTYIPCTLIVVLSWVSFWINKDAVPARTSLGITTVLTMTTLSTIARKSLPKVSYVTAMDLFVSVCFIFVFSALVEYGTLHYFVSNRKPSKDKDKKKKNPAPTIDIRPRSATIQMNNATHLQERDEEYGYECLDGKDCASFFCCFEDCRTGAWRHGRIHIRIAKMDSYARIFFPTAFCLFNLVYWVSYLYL

As usually defined, the Emax is the greatest response seen or fitted, relative to the assay's reference. `C#Cc1ccc2c(c1)C(c1ccccc1)=NCc1c(C(=O)N3CCN(C)CC3)ncn1-2` [Example 8, (8-Ethynyl-6-phenyl-4H-benzo[f]imidazo[1,5-a][1,4]diazepin-3-yl)(4-methylpiperazin-1-yl)methanone]: the Emax was 300 to 400%.
Still for that read-out and setting: in the case of `C#Cc1ccc2c(c1)C(c1ccccc1)=NCc1c(C(=O)NC(COC)COC)ncn1-2` [Example 15, N-(1,3-Dimethoxypropan-2-yl)-8-ethynyl-6-phenyl-4H-benzo[f]imidazo[1,5-a][1,4]diazepine-3-carboxamide] it was 200 to 300%; in that of `C#Cc1ccc2c(c1)C(c1ccccc1F)=NCc1c(C(=O)NCCOC)ncn1-2` [Example 34, 8-Ethynyl-6-(2-fluorophenyl)-N-(2-methoxyethyl)-4H-benzo[f]imidazo[1,5-a][1,4]diazepine-3-carboxamide dihydrochloride], 300 to 400%; in that of `C#Cc1ccc2c(c1)C(c1ccccc1)=NCc1c(C(=O)N3CCN(c4ncccn4)CC3)ncn1-2` [Example 21, (8-Ethynyl-6-phenyl-4H-benzo[f]imidazo[1,5-a][1,4]diazepin-3-yl)(4-(pyrimidin-2-yl)piperazin-1-yl)methanone], 200 to 300%.
For `C#Cc1ccc2c(c1)C(c1ccccc1)=NCc1c(C(=O)NCCOC(C)=O)ncn1-2` [Example 32, 2-(8-Ethynyl-6-phenyl-4H-benzo[f]imidazo[1,5-a][1,4]diazepine-3-carboxamido)ethyl acetate dihydrochloride], the Emax is 300 to 400%.
Take `C#Cc1ccc2c(c1)C(c1ccccc1)=NCc1c(C(=O)NCC(=O)OCC)ncn1-2` [Example 7, Ethyl 2-(8-ethynyl-6-phenyl-4H-benzo[f]imidazo[1,5-a][1,4]diazepine-3-carboxamido)acetate]: the Emax was 300 to 400%.
As for `C#Cc1ccc2c(c1)C(c1ccccc1)=NCc1c(C(=O)N(CCOC)CCOC)ncn1-2` [Example 16, 8-Ethynyl-N,N-bis(2-methoxyethyl)-6-phenyl-4H-benzo[f]imidazo[1,5-a][1,4]diazepine-3-carboxamide], the Emax is 200 to 300%.
Take `C#Cc1ccc2c(c1)C(c1ccccc1)=NCc1c(C(=O)NC(CC)COC)ncn1-2` (stereo not shown) [Example 13, 8-Ethynyl-N-(1-methoxybutan-2-yl)-6-phenyl-4H-benzo[f]imidazo[1,5-a][1,4]diazepine-3-carboxamide]: the Emax fell in the range of 200 to 300%.
For the molecule `C#Cc1ccc2c(c1)C(c1ccccc1)=NCc1c(C(=O)NCCN(C)CCNC(=O)c3ncn4c3CN=C(c3ccccc3)c3cc(C#C)ccc3-4)ncn1-2` [Example 24, N,N′-(2,2′-(Methylazanediyl)bis(ethane-2,1-diyl))bis(8-ethynyl-6-phenyl-4H-benzo[f]imidazo[1,5-a][1,4]diazepine-3-carboxamide)], the “GABAA α2 EP EMAX (%)” value is recorded as “** (300% < Emax < 400 **)”.
Regarding `C#Cc1ccc2c(c1)C(c1ccccc1)=NCc1c(C(=O)NCC3CCCO3)ncn1-2` (stereo not shown) [Example 36, 8-Ethynyl-6-phenyl-N-((tetrahydrofuran-2-yl)methyl)-4H-benzo[f]imidazo[1,5-a][1,4]diazepine-3-carboxamide, dihydrochloride], the Emax fell in the range of 300 to 400%.
The same measure, in the same setting: the result for `C#Cc1ccc2c(c1)C(c1ccccc1)=NCc1c(C(=O)NCCCCCO)ncn1-2` [Example 30, 8-Ethynyl-N-(5-hydroxypentyl)-6-phenyl-4H-benzo[f]imidazo[1,5-a][1,4]diazepine-3-carboxamide dihydrochloride] reads 300 to 400%; that for `C#Cc1ccc2c(c1)C(c1ccccc1)=NCc1c(C(=O)NCCN(C)C)ncn1-2` [Example 6, N-(2-(Dimethylamino)ethyl)-8-ethynyl-6-phenyl-4H-benzo[f]imidazo[1,5-a][1,4]diazepine-3-carboxamide], 300 to 400%.
In the case of `C#Cc1ccc2c(c1)C(c1ccccc1)=NCc1c(C(=O)NCC(O)CC)ncn1-2` (stereo not shown) [Example 26, 8-Ethynyl-N-(2-hydroxybutyl)-6-phenyl-4H-benzo[f]imidazo[1,5-a][1,4]diazepine-3-carboxamide], the Emax lay within 200 to 300%.
Regarding `C#Cc1ccc2c(c1)C(c1ccccc1)=NCc1c(C(=O)N3CCOCC3)ncn1-2` [Example 9], the Emax is 400 to 500%.
As for `C#Cc1ccc2c(c1)C(c1ccccc1)=NCc1c(C(=O)NC(C)COC)ncn1-2` (stereo not shown) [Example 17, 8-Ethynyl-N-(1-methoxypropan-2-yl)-6-phenyl-4H-benzo[f]imidazo[1,5-a][1,4]diazepine-3-carboxamide], the Emax was in the range of 200 to 300%.
With `C#Cc1ccc2c(c1)C(c1ccccc1)=NCc1c(C(=O)NCC)ncn1-2` [Example 2, N-Ethyl-8-ethynyl-6-phenyl-4H-benzo[f]imidazo[1,5-a][1,4]diazepine-3-carboxamide dihydrochloride], the Emax fell in the range of 300 to 400%.
As for `C#Cc1ccc2c(c1)C(c1ccccc1)=NCc1c(C(=O)NCCSCCNC(=O)c3ncn4c3CN=C(c3ccccc3)c3cc(C#C)ccc3-4)ncn1-2` [Example 25, N,N′-(2,2′-Thiobis(ethane-2,1-diyl))bis(8-ethynyl-6-phenyl-4H-benzo[f]imidazo[1,5-a][1,4]diazepine-3-carboxamide)], the “GABAA α2 EP EMAX (%)” value is listed as “* (200% < Emax < 300 *)”.
As for `C#Cc1ccc2c(c1)C(c1ccccc1)=NCc1c(C(=O)NCCCO)ncn1-2` [Example 29, 8-Ethynyl-N-(3-hydroxypropyl)-6-phenyl-4H-benzo[f]imidazo[1,5-a][1,4]diazepine-3-carboxamide dihydrochloride], the Emax was in the range of 300 to 400%.
The same measure, in the same setting: in the case of `C#Cc1ccc2c(c1)C(c1ccccc1)=NCc1c(C(=O)NCCOCC)ncn1-2` [Example 12, N-(2-Ethoxyethyl)-8-ethynyl-6-phenyl-4H-benzo[f]imidazo[1,5-a][1,4]diazepine-3-carboxamide dihydrochloride] it was 300 to 400%.
As to `C#Cc1ccc2c(c1)C(c1ccccc1)=NCc1c(C(=O)NCCCCO)ncn1-2` [Example 31, 8-Ethynyl-N-(4-hydroxybutyl)-6-phenyl-4H-benzo[f]imidazo[1,5-a][1,4]diazepine-3-carboxamide dihydrochloride], the Emax fell in the range of 300 to 400%.
As to `C#Cc1ccc2c(c1)C(c1ccccc1)=NCc1c(C(=O)NC3CC3)ncn1-2` [Example 10, N-Cyclopropyl-8-ethynyl-6-phenyl-4H-benzo[f]imidazo[1,5-a][1,4]diazepine-3-carboxamide], the Emax is above 500%.
On the same count and under the same terms, the result for `C#Cc1ccc2c(c1)C(c1ccccc1)=NCc1c(C(=O)NCCOCCC)ncn1-2` [Example 19, 8-Ethynyl-6-phenyl-N-(2-propoxyethyl)-4H-benzo[f]imidazo[1,5-a][1,4]diazepine-3-carboxamide] reads 400 to 500%; that for `C#Cc1ccc2c(c1)C(c1ccccc1)=NCc1c(C(=O)NC[C@@H](C)O)ncn1-2` [Example 27, 8-Ethynyl-N—((R)-2-hydroxypropyl)-6-phenyl-4H-benzo[f]imidazo[1,5-a][1,4]diazepine-3-carboxamide], 200 to 300%; that for `C#Cc1ccc2c(c1)C(c1ccccn1)=NCc1c(C(=O)NCCOC)ncn1-2` [Example 37, 8-Ethynyl-N-(2-methoxyethyl)-6-(pyridin-2-yl)-4H-benzo[f]imidazo[1,5-a][1,4]diazepine-3-carboxamide], 200 to 300%.
Take `C#Cc1ccc2c(c1)C(c1ccccc1)=NCc1c(C(=O)NC[C@H](C)O)ncn1-2` [Example 28, 8-Ethynyl-N—((S)-2-hydroxypropyl)-6-phenyl-4H-benzo[f]imidazo[1,5-a][1,4]diazepine-3-carboxamide]: the Emax fell in the range of 300 to 400%.

For the origin of these results see patent US8119629B2, “Carboxamide GABAA α2 modulators” (Bristol-Meyers Squibb Company, priority 2007, dated 2012).
